From patent US8623900B2, “Amino alcohol derivatives and their therapeutic activities” (Flamma S.p.A., priority 2009, dated 2014) come the findings set out here.

The subject of one data set is rat. As to the kind of experiment: preliminary toxicological study in the rat. It is filed as in vivo.
A short description of data set [1]: carbonyl-quenching activity towards HNE in vitro (residual HNE by reverse-phase chromatography). The format is biochemical. Particulars: HNE 50 μM, compound 1 mM, phosphate buffer 10 mM, pH 7.4, 37° C.; percentage of HNE reacted after one, two and three hours. The procedure:
The pharmacological activity of the compounds according to the invention was determined in vitro by evaluating their carbonyl-quenching activity towards 4-hydroxy nonenal ([…]), which is known for its involvement in numerous disorders.
The activity was evaluated one, two and three hours after incubation, determining the residual HNE content by reverse-phase chromatography as previously described by Aldini G. et al. [Biochem Biophys Res Commun. 2002 Nov. 15; 298(5):699-706]. The carbonyl-quenching activity is evaluated on the basis of the percentage of HNE reacted, compared with the HNE content in the absence of the molecule to be tested.

For `NCCC(=O)N[C@H](CO)Cc1cnc[nH]1` [3-Amino-N-[(1S)-2-hydroxy-1-(1H-imidazol-5-yl-methyl)-ethyl]propanamide], the toxic effects result with rat (IV, 3 consecutive doses 3, 10 and 30 mg/kg) is given as “no toxic effects were observed”; in the data set on rat (intraperitoneal, single dose 100 mg/kg) it was “no toxic effects were observed”; in the data set on rat (per os (gavage), 100 mg/kg/day for 7 days), “no toxic effects were observed”. In data set [1], the “carbonyl-quenching activity relative to β-alanyl histidine (standard substance)” value amounted to 1.66 times.
